Here are results for ten compounds from ChEMBL document CHEMBL3044773, “Adulticidal activity of phthalides identified in Cnidium officinale rhizome to B- and Q-biotypes of Bemisia tabaci” (2011).

≈ marks a conversion by molar mass, not a printed value. A value given as a limit tells only on which side of the number the result lay.

Holding throughout (format): functional
In assay [1] the test system is Bemisia tabaci. The experiment in a line: Adulticidal activity against female Bemisia tabaci biotype B (sweet potato whitefly) in cucumber leaves assessed as residual contact toxicity treated for 30 secs before adult insect infestation measured after 24 hr by leaf dip bioassay. Particulars: foliar.
Assay [2] has as its system Bemisia tabaci. The experiment in a line: Biotype susceptibility ratio, ratio of LC50 for female adult Bemisia tabaci biotype Q (sweet potato whitefly) to LC50 for female adult Bemisia tabaci biotype B.
Assay [3] deals with Bemisia tabaci. In words: Adulticidal activity against female Bemisia tabaci biotype Q (sweet potato whitefly) in cucumber leaves assessed as residual contact toxicity treated for 30 secs before adult insect infestation measured after 24 hr by leaf dip bioassay. The note with it: foliar.

As a reminder, the LC50 is the concentration that kills 50% of the test population. As for `CCN(CC)c1nc(C)cc(OP(=S)(OC)OC)n1` [PIRIMIPHOS METHYL], the LC50 is 188 µg/mL (≈ 616 µM) in assay [1] and 235 µg/mL (≈ 770 µM) in assay [3]. Moreover, the RatioLC50 in assay [2] is 1.3.
As for `COP(=O)(OC)OC=C(Cl)Cl` [DICHLORVOS], the results for the LC50 in assay [1] and in assay [3] were 182 µg/mL (≈ 825 µM) and 224 µg/mL (≈ 1010 µM), respectively. Besides, the RatioLC50 in assay [2] is 1.2.
In the case of `C/C(=N\C#N)N(C)Cc1ccc(Cl)nc1` [ACETAMIPRID], the LC50 in assay [1] stood at 11.6 µg/mL (≈ 52.1 µM); in assay [3] it was 364 µg/mL (≈ 1640 µM). Besides, the RatioLC50 in assay [2] is on record as 31.4.
`CN1COCN(Cc2cnc(Cl)s2)/C1=N\[N+](=O)[O-]` [THIAMETHOXAM]: the figures for the LC50 in assay [1] and in assay [3] were 1.7 µg/mL (≈ 5.83 µM) and greater than 3000 µg/mL, respectively. Moreover, the RatioLC50 in assay [2] was greater than 1764.7.
Turning to `CCC/C=C1\OC(=O)C2=C1CCC=C2` [LIGUSTILIDE], the figures for the LC50 in assay [1] and in assay [3] were 268 µg/mL (≈ 1410 µM) and 254 µg/mL (≈ 1340 µM), respectively. Also, the RatioLC50 in assay [2] is listed as 0.9.
In the same order, the values of `CCCC[C@@H]1OC(=O)c2ccccc21` [(3S)-BUTYLPHTHALIDE] are 339 µg/mL (≈ 1780 µM), 338 µg/mL (≈ 1780 µM) and 1.
For `CCC/C=C1\OC(=O)c2ccccc21` [Z-butylidenephthalide], the LC50 in assay [1] was 254 µg/mL (≈ 1350 µM); in assay [3], 586 µg/mL (≈ 3110 µM). Further, in assay [2], the RatioLC50 turned out to be 2.3.
With `CC1(C)C(C=C(Cl)Cl)C1C(=O)OC(C#N)c1cccc(Oc2ccccc2)c1` (stereo not drawn) [ALPHA-CYPERMETHRIN], the LC50 in assay [1] was 337 µg/mL (≈ 809 µM); in assay [3] it was 482 µg/mL (≈ 1160 µM). Moreover, the RatioLC50 in assay [2] amounted to 1.4.
With `O=[N+]([O-])/N=C1\NCCN1Cc1ccc(Cl)nc1` [IMIDACLOPRID], the LC50 in assay [1] was 7 µg/mL (≈ 27.4 µM); in assay [3] it was greater than 3000 µg/mL. In addition, the RatioLC50 in assay [2] is recorded as greater than 428.6.
In the same order, the values of `CC(C)(C)c1ccc(CSc2cnn(C(C)(C)C)c(=O)c2Cl)cc1` [PYRIDABEN] are 129 µg/mL (≈ 354 µM), 211 µg/mL (≈ 578 µM) and 1.6.
